Measurements taken from publication PMC12340637, “Transport of Small Aliphatic Amines by Polyspecific Solute Carriers: Deciphering Structure–Function Relationships” (ACS Pharmacology & Translational Science, 2025).
Like-named read-outs stand apart in the source and are kept apart here. Marks after values point to notes of the source that are not given here. Values belong to the compound of their own block, whether it stands above or below them.

What was measured:
MATE1 (SLC47A1) [1] = target: T1, MATE1 (SLC47A1) (Homo sapiens, UniProt Q96FL8); experiment: in vitro; conditions: pH 7.4
T1 sequence (Q96FL8 1-570): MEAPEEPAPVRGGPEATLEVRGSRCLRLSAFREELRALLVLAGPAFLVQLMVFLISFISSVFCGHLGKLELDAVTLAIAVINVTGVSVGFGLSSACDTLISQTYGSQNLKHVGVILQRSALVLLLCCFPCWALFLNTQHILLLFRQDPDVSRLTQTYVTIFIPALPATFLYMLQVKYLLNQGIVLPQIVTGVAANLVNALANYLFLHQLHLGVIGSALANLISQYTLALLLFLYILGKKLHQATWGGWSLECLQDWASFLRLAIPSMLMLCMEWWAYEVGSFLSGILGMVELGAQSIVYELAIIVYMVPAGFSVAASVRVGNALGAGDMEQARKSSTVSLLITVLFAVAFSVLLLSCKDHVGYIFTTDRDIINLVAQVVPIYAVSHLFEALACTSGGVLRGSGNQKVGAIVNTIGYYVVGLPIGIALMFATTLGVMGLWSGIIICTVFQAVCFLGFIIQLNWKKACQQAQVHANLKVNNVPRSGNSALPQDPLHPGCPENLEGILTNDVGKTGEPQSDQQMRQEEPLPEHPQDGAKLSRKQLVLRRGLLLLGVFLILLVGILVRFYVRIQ

MATE2-K (SLC47A2) [2] = target: T2, MATE2-K (SLC47A2) (Homo sapiens, UniProt Q86VL8); experiment: in vitro; conditions: pH 7.4
T2 sequence (Q86VL8 1-566 isoform Q86VL8-3): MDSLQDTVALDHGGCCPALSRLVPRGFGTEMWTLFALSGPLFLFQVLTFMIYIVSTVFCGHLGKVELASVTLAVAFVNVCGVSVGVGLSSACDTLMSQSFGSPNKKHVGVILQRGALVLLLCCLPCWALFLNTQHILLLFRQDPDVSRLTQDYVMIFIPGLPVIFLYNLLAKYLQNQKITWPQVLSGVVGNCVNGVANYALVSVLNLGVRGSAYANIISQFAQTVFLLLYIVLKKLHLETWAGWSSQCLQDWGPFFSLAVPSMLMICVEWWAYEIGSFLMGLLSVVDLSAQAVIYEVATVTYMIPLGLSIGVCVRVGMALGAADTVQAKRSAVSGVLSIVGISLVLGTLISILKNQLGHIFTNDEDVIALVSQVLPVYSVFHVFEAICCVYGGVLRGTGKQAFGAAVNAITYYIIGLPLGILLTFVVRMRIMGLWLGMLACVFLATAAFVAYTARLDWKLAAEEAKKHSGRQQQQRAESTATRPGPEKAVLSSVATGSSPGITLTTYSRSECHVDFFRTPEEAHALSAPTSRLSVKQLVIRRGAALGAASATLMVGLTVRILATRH

OCT2 (SLC22A2) [3] = target: T3, OCT2 (SLC22A2) (Homo sapiens, UniProt O15244); experiment: in vitro; conditions: pH 7.4
T3 sequence (O15244 1-555): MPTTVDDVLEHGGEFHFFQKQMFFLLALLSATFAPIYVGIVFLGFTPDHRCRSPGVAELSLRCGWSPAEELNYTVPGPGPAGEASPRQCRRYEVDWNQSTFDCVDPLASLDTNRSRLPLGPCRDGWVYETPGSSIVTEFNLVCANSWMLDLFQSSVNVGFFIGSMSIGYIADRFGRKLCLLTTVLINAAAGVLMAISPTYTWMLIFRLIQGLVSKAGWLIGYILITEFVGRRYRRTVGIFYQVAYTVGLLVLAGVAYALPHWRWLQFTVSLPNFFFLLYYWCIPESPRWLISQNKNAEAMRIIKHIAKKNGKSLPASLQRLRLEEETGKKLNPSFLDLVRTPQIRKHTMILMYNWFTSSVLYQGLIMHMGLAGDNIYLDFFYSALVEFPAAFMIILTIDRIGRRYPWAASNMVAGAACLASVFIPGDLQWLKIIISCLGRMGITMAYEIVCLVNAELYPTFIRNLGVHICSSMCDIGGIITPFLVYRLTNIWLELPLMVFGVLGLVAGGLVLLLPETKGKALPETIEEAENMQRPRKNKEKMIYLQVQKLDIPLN

OCT1 (SLC22A1) [4] = target: T4, OCT1 (SLC22A1) (Homo sapiens, UniProt O15245); experiment: in vitro; conditions: pH 7.4
T4 sequence (O15245 1-554): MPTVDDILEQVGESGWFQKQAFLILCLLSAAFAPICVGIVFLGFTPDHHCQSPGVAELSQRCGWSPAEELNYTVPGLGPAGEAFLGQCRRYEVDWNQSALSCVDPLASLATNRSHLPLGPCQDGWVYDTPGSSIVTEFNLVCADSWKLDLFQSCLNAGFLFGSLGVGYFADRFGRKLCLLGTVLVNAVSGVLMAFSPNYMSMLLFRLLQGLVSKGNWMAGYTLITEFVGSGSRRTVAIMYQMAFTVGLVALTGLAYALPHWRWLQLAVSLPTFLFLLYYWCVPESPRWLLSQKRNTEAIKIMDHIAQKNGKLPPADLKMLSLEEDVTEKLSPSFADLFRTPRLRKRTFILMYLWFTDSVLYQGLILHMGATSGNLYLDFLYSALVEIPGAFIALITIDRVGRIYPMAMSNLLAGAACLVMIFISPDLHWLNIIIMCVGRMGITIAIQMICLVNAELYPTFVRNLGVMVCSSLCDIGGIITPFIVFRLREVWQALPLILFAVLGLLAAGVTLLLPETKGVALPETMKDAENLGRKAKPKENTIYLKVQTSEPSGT

OCT2 (SLC22A2) [5] = target: T3, OCT2 (SLC22A2); experiment: Cellular uptake into OCT2-overexpressing HEK293 cells vs EV control cells (HPLC-MS/MS)
MATE2-K (SLC47A2) [6] = target: T2, MATE2-K (SLC47A2); experiment: Cellular uptake into MATE2-K-overexpressing HEK293 cells vs EV control cells (HPLC-MS/MS)
OCT3 (SLC22A3) = target: T5, OCT3 (SLC22A3) (Homo sapiens, UniProt O75751); experiment: Cellular uptake into OCT3-overexpressing HEK293 cells vs EV control cells (HPLC-MS/MS); conditions: for uptake ratio OCT3 (transporter-overexpressing cells over EV control cells): mean (±SD, N): 2 min, HEK293
T5 sequence (O75751 1-556): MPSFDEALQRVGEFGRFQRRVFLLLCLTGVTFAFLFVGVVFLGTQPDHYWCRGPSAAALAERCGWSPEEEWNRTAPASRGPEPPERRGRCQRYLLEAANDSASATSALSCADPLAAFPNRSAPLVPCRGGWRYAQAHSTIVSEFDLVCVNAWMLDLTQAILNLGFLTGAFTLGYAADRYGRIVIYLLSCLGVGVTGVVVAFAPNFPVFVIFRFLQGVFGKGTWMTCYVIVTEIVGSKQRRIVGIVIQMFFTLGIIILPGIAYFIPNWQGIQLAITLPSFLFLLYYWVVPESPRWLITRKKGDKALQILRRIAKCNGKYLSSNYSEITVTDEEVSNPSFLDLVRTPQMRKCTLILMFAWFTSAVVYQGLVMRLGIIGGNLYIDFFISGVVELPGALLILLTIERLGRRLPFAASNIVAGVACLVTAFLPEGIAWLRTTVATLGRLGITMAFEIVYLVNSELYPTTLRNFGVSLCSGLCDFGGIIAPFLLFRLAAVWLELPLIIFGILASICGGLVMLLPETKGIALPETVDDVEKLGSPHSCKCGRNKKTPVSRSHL

MATE1 (SLC47A1) [7] = target: T1, MATE1 (SLC47A1); experiment: Cellular uptake into MATE1-overexpressing HEK293 cells vs EV control cells (HPLC-MS/MS)
OCT1 (SLC22A1) [8] = target: T4, OCT1 (SLC22A1); experiment: Cellular uptake into OCT1-overexpressing HEK293 cells vs EV control cells (HPLC-MS/MS)
OCT2 (SLC22A2) [9] = target: T3, OCT2 (SLC22A2); conditions: pH 7.4
[10] = 2.5 μM substrate (§), 2 min, HEK293
[11] = 2.5 μM substrate (§), 2 min, HEK293, listed as L-tert-leucinol
[12] = 2.5 μM substrate, 1 min, 30 mM NH4Cl preincubation, HEK293
[13] = 2.5 μM substrate, 1 min, 30 mM NH4Cl preincubation, HEK293, listed as L-tert-leucinol
[14] = OCT2, net uptake, Michaelis–Menten

SMILES: CC(C)(C)[C@@H](N)CO [(R)-(−)-tert-leucinol]
- selectivity ratio at 1 min (MATE1 (SLC47A1) [1]): 1.3
- selectivity ratio at 1 min (MATE2-K (SLC47A2) [2]): 1.5

SMILES: C[C@@H](N)CCO [(R)-3-aminobutan-1-ol]
- selectivity ratio at 1 min (MATE1 (SLC47A1) [1]): 1.9
- selectivity ratio at 1 min (MATE2-K (SLC47A2) [2]): 1.4
- selectivity ratio at 2 min (OCT2 (SLC22A2) [3]): 2.7
- selectivity ratio at 2 min (OCT1 (SLC22A1) [4]): 1.1

SMILES: CCCC[C@@H](N)CO [(R)-(−)-2-amino-1-hexanol]
- K m (±SEM) (OCT2 (SLC22A2) [5]; [14]): 59 (±11) μM
- v max (±SEM) (OCT2 (SLC22A2) [5]; [14]): 1342 (±84) ^b pmol/mg protein/min
- higher v max of one enantiomer over the other, OCT2 (OCT2 (SLC22A2) [5]; label = enantiomer with higher v max): 1.7 fold
- selectivity ratio at 1 min (MATE1 (SLC47A1) [1]): 1.2
- selectivity ratio at 1 min (MATE2-K (SLC47A2) [2]): 1.3
- selectivity ratio at 2 min (OCT1 (SLC22A1) [4]): 1.1

SMILES: CC(C)NC(C)C [diisopropylamine]
- uptake ratio OCT2 (transporter-overexpressing cells over EV control cells): mean (±SD, N) (OCT2 (SLC22A2) [5]): 5.1 (1.2, 4) ^b
- v max (±SEM) (OCT2 (SLC22A2) [5]): 1388 (±157) pmol/mg protein/min
- uptake ratio MATE2K (transporter-overexpressing cells over EV control cells): mean (±SD, N) (MATE2-K (SLC47A2) [6]): 1.2 (0.1, 3)
- CLint (±SEM) (OCT2 (SLC22A2) [9]): 20 (±12) μL/mg protein/min
- uptake ratio OCT3 (transporter-overexpressing cells over EV control cells): mean (±SD, N) (OCT3 (SLC22A3); 10 μM substrate): 1.1 (0.2, 4)
- uptake ratio MATE1 (transporter-overexpressing cells over EV control cells): mean (±SD, N) (MATE1 (SLC47A1) [7]): 0.8 (0.02, 3) ^b
- uptake ratio OCT1 (transporter-overexpressing cells over EV control cells): mean (±SD, N) (OCT1 (SLC22A1) [8]): 1.4 (0.3, 4)

Second part, led by results:

- uptake ratio OCT2 (transporter-overexpressing cells over EV control cells): mean (±SD, N) (OCT2 (SLC22A2) [5]; [10]): 10.8 (1.4, 3) ^b
- uptake ratio OCT2 (transporter-overexpressing cells over EV control cells): mean (±SD, N) (OCT2 (SLC22A2) [5]; [11]): 10.8
- uptake ratio MATE2K (transporter-overexpressing cells over EV control cells): mean (±SD, N) (MATE2-K (SLC47A2) [6]; [12]): 0.9 (0.3, 3)
- uptake ratio MATE2K (transporter-overexpressing cells over EV control cells): mean (±SD, N) (MATE2-K (SLC47A2) [6]; [13]): 0.9
- uptake ratio OCT3 (transporter-overexpressing cells over EV control cells): mean (±SD, N) (OCT3 (SLC22A3); 2.5 μM substrate (§)): 2.1 (0.5, 3)
- uptake ratio OCT3 (transporter-overexpressing cells over EV control cells): mean (±SD, N) (OCT3 (SLC22A3); 2.5 μM substrate (§), listed as L-tert-leucinol): 2.1
- stereoselectivity OCT3 (uptake ratio of the more strongly transported enantiomer divided by that of the other) (OCT3 (SLC22A3); label = favoured enantiomer): 1.9-fold for(S) ^a
- uptake ratio MATE1 (transporter-overexpressing cells over EV control cells): mean (±SD, N) (MATE1 (SLC47A1) [7]; [12]): 0.7 (0.2, 3)
- uptake ratio MATE1 (transporter-overexpressing cells over EV control cells): mean (±SD, N) (MATE1 (SLC47A1) [7]; [13]): 0.7
- uptake ratio OCT1 (transporter-overexpressing cells over EV control cells): mean (±SD, N) (OCT1 (SLC22A1) [8]; [10]): 1.4 (0.4, 3)
- uptake ratio OCT1 (transporter-overexpressing cells over EV control cells): mean (±SD, N) (OCT1 (SLC22A1) [8]; [11]): 1.4
SMILES: CC(C)(C)[C@H](N)CO [L-tert-Leucinol]
- selectivity ratio at 2 min (OCT2 (SLC22A2) [3]): 1.4
- selectivity ratio at 2 min (OCT1 (SLC22A1) [4]): 1.3

- K m (±SEM) (OCT2 (SLC22A2) [5]; [14]): 198 (±67) μM
- v max (±SEM) (OCT2 (SLC22A2) [5]; [14]): 1453 (±179) ^a pmol/mg protein/min
SMILES: CCC[C@@H](N)CO [(R)-(−)-2-amino-1-pentanol]
- selectivity ratio at 1 min (MATE1 (SLC47A1) [1]): 1.5
- selectivity ratio at 1 min (MATE2-K (SLC47A2) [2]): 1.2
- selectivity ratio at 2 min (OCT1 (SLC22A1) [4]): 1.1
